Read-outs that look alike come from different tables or passages of the source.
Assays:
[1] = tested on: MOLM-13; assay: Secondary dose-response HTS, Cell Titer Glo; format: cell-based, human; settings: MOLM-13
[2] = tested on: MV4-11; assay: Secondary dose-response HTS, Cell Titer Glo; format: cell-based, human; settings: MV4-11
[3] = tested on: CHRF288-11; assay: Secondary dose-response HTS, Cell Titer Glo; format: cell-based, human
[4] = tested on: CMK; assay: Secondary dose-response HTS, Cell Titer Glo; format: cell-based, human; settings: CMK
[5] = tested on: CMS; assay: Secondary dose-response HTS, Cell Titer Glo; format: cell-based, human
[6] = tested on: ML2; assay: Secondary dose-response HTS, Cell Titer Glo; format: cell-based, human; settings: secondary high-throughput screen, ML-2; for EC50: read-out: average effective concentration, ML-2
[7] = tested on: U937; assay: Secondary dose-response HTS, Cell Titer Glo; format: cell-based, human
[8] = tested on: MOLM-13; assay: cells; parameters: species or system AML cell lines (8); Secondary HTS, 10-point dose-response in triplicate, Cell Titer Glo viability, four-parameter fit EC50; settings: Homo sapiens, MOLM-13, 72 h, read-out: MOLM-13
[9] = tested on: MV4-11; assay: cells; parameters: species or system AML cell lines (8); Secondary HTS, 10-point dose-response in triplicate, Cell Titer Glo viability, four-parameter fit EC50; settings: Homo sapiens, MV4-11, 72 h, read-out: MV4-11
[10] = tested on: CMK; assay: cells; parameters: species or system AML cell lines (8); Secondary HTS, 10-point dose-response in triplicate, Cell Titer Glo viability, four-parameter fit EC50; settings: Homo sapiens, CMK, 72 h, read-out: CMK
[11] = tested on: CHRF288-11; assay: cells; parameters: species or system AML cell lines (8); Secondary HTS, 10-point dose-response in triplicate, Cell Titer Glo viability, four-parameter fit EC50; settings: 72 h, read-out: CHRF288-11
[12] = tested on: CMS; assay: cells; parameters: species or system AML cell lines (8); Secondary HTS, 10-point dose-response in triplicate, Cell Titer Glo viability, four-parameter fit EC50; settings: 72 h, read-out: CMS
[13] = tested on: M07e; assay: cells; parameters: species or system AML cell lines (8); Secondary HTS, 10-point dose-response in triplicate, Cell Titer Glo viability, four-parameter fit EC50; settings: M-07e, 72 h, read-out: M07e
[14] = tested on: U937; assay: cells; parameters: species or system AML cell lines (8); Secondary HTS, 10-point dose-response in triplicate, Cell Titer Glo viability, four-parameter fit EC50; settings: Homo sapiens, U-937, 72 h, read-out: U937
[15] = secondary high-throughput screen, read-out: average effective concentration, MOLM-13
[16] = secondary high-throughput screen, CHRF288-11, read-out: average effective concentration, CHRF288-11
[17] = secondary high-throughput screen, read-out: average effective concentration, CMK
[18] = secondary high-throughput screen, CMS, read-out: average effective concentration, CMS
[19] = secondary high-throughput screen, U937
[20] = secondary high-throughput screen
[21] = secondary high-throughput screen, CHRF288-11
[22] = secondary high-throughput screen, CMS
[23] = Homo sapiens, secondary high-throughput screen, read-out: average effective concentration, MV4-11
[24] = Homo sapiens, HTS, secondary high-throughput screen, CHRF288-11, read-out: average effective concentration, CHRF288-11
[25] = Homo sapiens, U-937, secondary high-throughput screen, U937, read-out: average effective concentration, U937
[26] = Homo sapiens, secondary high-throughput screen, read-out: average effective concentration, MOLM-13
[27] = Homo sapiens, read-out: average effective concentration, CMK

| Compound | average effective concentration, U937 [7, 19] | average effective concentration, MV4-11 [2, 20] | average effective concentration, CMS [5, 22] | EC50 [8] | EC50 [9] | EC50 [10] | EC50 ([6]; Homo sapiens) | EC50 [12] | EC50 [13] | EC50 [14] | also measured |
| --- | --- | --- | --- | --- | --- | --- | --- | --- | --- | --- | --- |
| C[C@H](Oc1cc(-c2cnn(C3CCNCC3)c2)cnc1N)c1c(Cl)ccc(F)c1Cl [(S)-CRIZOTINIB] | Inactive | – | – | – | – | – | – | – | – | – | EC50 [1, 15]: 3.9 µM; EC50 ([2]; secondary high-throughput screen, read-out: average effective concentration, MV4-11): 3.9 µM; EC50 [3, 16]: 7.8 µM; EC50 [4, 17]: 4.2 µM; EC50 [5, 18]: 8.3 µM; EC50 [6]: 5 µM |
| Cc1noc(-c2ccc(-c3ccc(CC(=O)O)cc3)cc2)c1NC(=O)O[C@H](C)c1ccccc1 [AM-095] | Inactive | Inactive | Inactive | – | – | – | – | – | – | – | average effective concentration, CHRF288-11 [3, 21]: Inactive; average effective concentration, CMK [4, 20]: Inactive; average effective concentration, ML-2 [6]: Inactive |
| CON(C)C(=O)N1N=C(c2cc(F)ccc2F)S[C@@]1(CCCN)c1ccccc1 [ARRY-520] | – | – | – | > 10 µM | > 10 µM | > 10 µM | – | – | – | – | – |
| CN[C@@H](C)C(=O)N[C@H]1CN(C(=O)CC(C)C)CC[C@H]2CC[C@@H](C(=O)NC(c3ccccc3)c3ccccc3)N2C1=O [AT-406] | – | – | – | > 10 µM | – | > 10 µM | 6.6 µM | > 10 µM | > 10 µM | > 10 µM | EC50 [2, 23]: 0.001 µM; EC50 [11]: > 10 µM |
| O=C(O)CC([S-])C(=O)O.[Au+] (stereo not shown) [AUROTHIOMALATE] | Inactive | Inactive | Inactive | – | – | – | – | – | – | – | average effective concentration, MOLM-13 [1, 20]: Inactive; average effective concentration, CHRF288-11 [3, 21]: Inactive; average effective concentration, CMK [4, 20]: Inactive |
| Nc1nccc2c1ncn2C1C=C(CO)C(O)C1O (stereo not shown) [Compound 3-DEAZANEPLANOCIN] | Inactive | Inactive | Inactive | – | – | – | – | – | – | – | average effective concentration, ML-2 [6]: Inactive |
| Nc1nc(=O)n([C@H]2C[C@H](O)[C@@H](CO)O2)cc1F [Compound 5-FLUORODEOXYCYTIDINE] | Inactive | Inactive | Inactive | – | – | – | – | – | – | – | – |
| Cc1nc(Nc2ncc(C(=O)Nc3c(C)cccc3Cl)s2)cc(N2CCN(CCO)CC2)n1 [DASATINIB] | – | – | – | > 10 µM | > 10 µM | > 10 µM | > 10 µM | > 10 µM | > 10 µM | > 10 µM | EC50 [3, 24]: 8.4 µM |
| C=C1C(=O)O[C@@H]2C[C@@]3(C)CCCC(=C)[C@@H]3C[C@H]12 [ISOHELENIN] | – | Inactive | – | – | – | – | – | – | – | – | EC50 [1, 15]: 5.9 µM; EC50 [3, 16]: 6.7 µM; EC50 [4, 17]: 5.2 µM; EC50 [5, 18]: 5.4 µM; EC50 [6]: 6.6 µM; EC50 ([7]; secondary high-throughput screen, U937, read-out: average effective concentration, U937): 8.2 µM |
| Cc1ccc(C(=O)Nc2ccc(Oc3cc4cnn(C)c4cc3-c3cn[nH]c3)c(F)c2)c(=O)n1-c1ccc(F)cc1 [LY2801653] | Inactive | Inactive | Inactive | – | – | – | – | – | – | – | average effective concentration, CHRF288-11 [3, 21]: Inactive; average effective concentration, CMK [4, 20]: Inactive; average effective concentration, ML-2 [6]: Inactive |
| CC1CS(=O)(=O)CCN1/N=C/c1ccc([N+](=O)[O-])o1 (stereo not shown) [NIFURTIMOX] | – | – | – | – | – | – | 8.5 µM | – | – | – | EC50 ([4]; Homo sapiens, secondary high-throughput screen, read-out: average effective concentration, CMK): 2.3 µM; EC50 ([5]; Homo sapiens, HTS, secondary high-throughput screen, CMS, read-out: average effective concentration, CMS): 5 µM; EC50 [7, 25]: 2.7 µM |
| O=C(c1cc(Cc2n[nH]c(=O)c3ccccc23)ccc1F)N1CCN(C(=O)C2CC2)CC1 [OLAPARIB] | – | – | – | > 10 µM | > 10 µM | > 10 µM | > 10 µM | > 10 µM | > 10 µM | > 10 µM | EC50 [3, 24]: > 10 µM |
| Cn1cc(CNCC2CCN(c3ncc(C(=O)NO)cn3)CC2)c2ccccc21 [Quisinostat, reference compound] | – | – | – | – | – | – | – | – | – | – | EC50 ([1]; Homo sapiens, secondary HTS, 72 h, average of triplicate, read-out: EC50 MOLM-13): 0.01 µM; EC50 [1, 26]: 0.011 µM; EC50 ([2]; Homo sapiens, secondary HTS, 72 h, average of triplicate, read-out: EC50 MV4-11): 0.01 µM; EC50 [2, 23]: 0.006 µM; EC50 [3, 24]: 0.009 µM; EC50 ([3]; Homo sapiens, secondary HTS, 72 h, average of triplicate, read-out: EC50 CHRF288-11): 0.01 µM; EC50 ([4]; Homo sapiens, 72 h, read-out: EC50 CMK): 0.02 µM; EC50 [4, 27]: 0.018 µM; EC50 ([5]; Homo sapiens, HTS, 72 h, read-out: EC50 CMS): 0.001 µM; EC50 ([7]; Homo sapiens, U-937, secondary HTS, 72 h, average of triplicate, read-out: EC50 U937): 0.01 µM |
| O=C(O)c1ccc2c(c1)nc(Nc1cccc(Cl)c1)c1ccncc12 [SILMITASERTIB] | – | – | – | – | > 10 µM | > 10 µM | > 10 µM | > 10 µM | > 10 µM | > 10 µM | EC50 [1, 26]: > 10 µM; EC50 [11]: > 10 µM |
| O=C1c2c(O)ccc(O)c2C(=O)c2c(NCCNCCO)ccc(NCCNCCO)c21 [SJ000285321, MITOXANTHRONE] | – | – | – | 0.0081 µM | – | 0.043 µM | – | 0.085 µM | 0.033 µM | 0.026 µM | EC50 [11]: 0.024 µM |
| Oc1nc(-c2ccc(C(F)(F)F)cc2)nc2c1CSCC2 [XAV939] | – | – | – | > 10 µM | > 10 µM | > 10 µM | 2.8 µM | > 10 µM | > 10 µM | > 10 µM | EC50 [11]: > 10 µM |
| C/C1=C\CC(C)(C)/C=C/C(=O)/C(C)=C/CC1 [ZERUMBONE] | – | – | – | – | > 10 µM | – | 6.9 µM | – | > 10 µM | – | EC50 [1, 26]: 10 µM; EC50 [3, 24]: 8.6 µM; EC50 [4, 27]: 7.2 µM; EC50 ([5]; Homo sapiens, HTS, read-out: average effective concentration, CMS): 7.3 µM; EC50 [7, 25]: 10 µM |
| BLEOMYCIN | Inactive | Inactive | Inactive | – | – | – | – | – | – | – | EC50 [1, 15]: 6.9 µM; average effective concentration, CMK [4, 20]: Inactive |
